Source: ChEMBL document CHEMBL1137946, “Synthesis and biological evaluation of (-)-laulimalide analogues” (Bioorg Med Chem Lett, 2004)

How the values were obtained:
HT-29 = assay: In vitro growth inhibitory activity against HT-29 human colon cancer cell line; assay type: functional, cell-based
MDA-MB-435 = assay: In vitro growth inhibitory activity against MDA-MB-435 human breast cancer cell line; assay type: functional, cell-based

| Structure (SMILES) | IC50 (HT-29) [nM] | IC50 (MDA-MB-435) [nM] |
| --- | --- | --- |
| C=C1C[C@H](C)C[C@@H]2CC=C[C@@H](CCCC(=O)O[C@H]([C@H](/C=C/[C@@H]3CC(C)=CCO3)OC)C[C@@H]3O[C@H]3[C@@H](O)C1)O2 | > 1000 | > 1000 |
| C=C1C[C@H](C)C[C@@H]2CC=C[C@@H](C/C=C\C(=O)O[C@H]([C@@H](O)/C=C/[C@@H]3CC(C)=CCO3)C[C@H]3O[C@@H]3[C@H](OC(=O)c3ccc([N+](=O)[O-])cc3)C1)O2 |  | > 1000 |
| C=C1C[C@H](C)C[C@@H]2CC=C[C@@H](C/C=C\C(=O)O[C@H]([C@@H](O)/C=C/[C@@H]3CC(C)=CCO3)C[C@@H]3O[C@H]3[C@H](OC(=O)c3ccc([N+](=O)[O-])cc3)C1)O2 |  | 37 |
| C=C1C[C@H](C)C[C@@H]2CC=C[C@@H](C/C=C\C(=O)O[C@H]([C@@H](O)/C=C/[C@@H]3CC(C)=CCO3)C[C@@H]3O[C@H]3[C@@H](OC)C1)O2 |  | > 1000 |
| C=C1C[C@H](C)C[C@@H]2CC=C[C@@H](C/C=C\C(=O)O[C@H]([C@@H](O)/C=C/[C@@H]3CC(C)=CCO3)C/C=C/[C@@H](O)C1)O2 | 960 | 289 |
| C=C1CC(=O)/C=C/C[C@@H]([C@@H](O)/C=C/[C@@H]2CC(C)=CCO2)OC(=O)/C=C\C[C@@H]2C=CC[C@@H](C[C@@H](C)C1)O2 |  | > 1000 |
| C=C1C[C@H](C)C[C@@H]2CC=C[C@@H](C/C=C\C(=O)O[C@H]([C@@H](O)/C=C/[C@@H]3CC(C)=CCO3)C[C@@H]3O[C@H]3[C@@H](OC(C)=O)C1)O2 |  | 23 |
| C=C1C[C@H](C)C[C@@H]2CC=C[C@@H](CC#CC(=O)O[C@H]([C@H](/C=C/[C@@H]3CC(C)=CCO3)OC)C[C@@H]3O[C@H]3[C@@H](O)C1)O2 | > 1000 | > 1000 |
| C=C1C[C@H](C)C[C@@H]2CC=C[C@@H](C/C=C\C(=O)O[C@H]([C@@H](O)/C=C/[C@@H]3CC(C)=CCO3)C[C@@H]3O[C@H]3[C@H](OC(=O)OC)C1)O2 |  | 422 |
| C=C1C[C@H](C)C[C@@H]2CC=C[C@@H](C/C=C\C(=O)O[C@H]([C@H](/C=C/[C@@H]3CC(C)=CCO3)OC(C)=O)C[C@@H]3O[C@H]3[C@@H](O)C1)O2 |  | 91 |
| C=C1C[C@H](C)C[C@@H]2CC=C[C@@H](C/C=C/C(=O)O[C@H]([C@@H](O)/C=C/[C@@H]3CC(C)=CCO3)C/C=C/[C@@H](O)C1)O2 | 8500 | 2760 |
| C=C1C[C@H](C)C[C@@H]2CC=C[C@@H](C/C=C\C(=O)O[C@H]([C@H](/C=C/[C@@H]3CC(C)=CCO3)OC)C[C@@H]3O[C@H]3[C@@H](O)C1)O2 | 590 | 242 |
| C=C1C[C@H](C)C[C@@H]2CC=C[C@@H](C/C=C\C(=O)O[C@H]([C@@H](O)/C=C/[C@@H]3CC(C)=CCO3)C[C@H]3O[C@@H]3[C@H](O)C1)O2 |  | 176 |
| C=C1C[C@H](C)C[C@@H]2CC=C[C@@H](C/C=C/C(=O)O[C@H]([C@@H](O)/C=C/[C@@H]3CC(C)=CCO3)C/C=C/[C@H](O)C1)O2 | 9600 | 4300 |
| C=C1CC(=N\OC)/C=C/C[C@@H]([C@@H](O)/C=C/[C@@H]2CC(C)=CCO2)OC(=O)/C=C\C[C@@H]2C=CC[C@@H](C[C@@H](C)C1)O2 |  | > 1000 |
| C=C1C[C@H](C)C[C@@H]2CC=C[C@@H](C/C=C\C(=O)O[C@H]([C@@H](O)/C=C/[C@@H]3CC(C)=CCO3)C/C=C/[C@H](O)C1)O2 | 2700 | 790 |
| C=C1C[C@H](C)C[C@@H]2CC=C[C@@H](C/C=C\C(=O)O[C@H]([C@@H](O)/C=C/[C@@H]3CC(C)=CCO3)C[C@@H]3O[C@H]3[C@@H](O)C1)O2 [FIJIANOLIDE B] | 6.9 | 2.3 |
| C=C1C[C@H](C)C[C@@H]2CC=C[C@@H](C/C=C\C(=O)O[C@H]([C@@H](O)/C=C/[C@@H]3CC(C)=CCO3)C[C@@H]3O[C@H]3[C@H](OC(=O)N(C)C)C1)O2 |  | 601 |
| C=C1C[C@H](C)C[C@@H]2CC=C[C@@H](C/C=C\C(=O)O[C@H]([C@H](/C=C/[C@@H]3CC(C)=CCO3)O[Si](C)(C)C(C)(C)C)C[C@@H]3O[C@H]3[C@@H](O)C1)O2 |  | > 1000 |
| C=C1C[C@H](C)C[C@@H]2CC=C[C@@H](C/C=C\C(=O)O[C@H]([C@H](/C=C/[C@@H]3CC(C)=CCO3)OC(C)=O)C[C@@H]3O[C@H]3[C@@H](OC(C)=O)C1)O2 |  | 289 |
